Experimental data as given in US20230278972A1, “SUBSTITUTED HALOALKYL SULFONANILIDE HERBICIDES” (FMC Corporation, priority 2020, published 2023).
Where two headings read alike, the source gives them in different places.

Key:
Format in all cases: in vivo
[1] = tested on: kochia (Bassia scoparia); experiment: Test A postemergence, kochia; details: Bassia scoparia, post-emergence, 240 h, Postemergence, 0 to 100 scale (0 no effect, 100 complete control); for pest or weed control at 125 g/ha: 125 g ai/ha; for pest or weed control at 500 g/ha: 500 g ai/ha
How it was run: (§1)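 After sowing into a sand-amended loam, pots for the preemergence test were treated by spraying directly onto soil. In parallel, seedlings at the one- to two-leaf stage and 2 to 10 cm tall were treated postemergence with the identical surfactant-containing formulation.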

[2] = tested on: galium (catchweed bedstraw, Galium aparine); experiment: Test A postemergence, galium; details: Galium, post-emergence, 240 h, Postemergence, 0 to 100 scale (0 no effect, 100 complete control); for pest or weed control at 125 g/ha: 125 g ai/ha; for pest or weed control at 500 g/ha: 500 g ai/ha
How it was run: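 Preemergence: pigweed seeds in loam soil–sand blend received a directed soil spray of test chemicals in a non-phytotoxic solvent with surfactant. Postemergence: barnyardgrass, wheat and galium in pots of the same soil, 2 to 10 cm tall at one- to two-leaf stage, sprayed with the same formulation.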

[3] = tested on: Ryegrass, Italian (Italian ryegrass, Lolium multiflorum); experiment: Test A postemergence, Ryegrass, Italian; details: Lolium multiflorum, post-emergence, 240 h, Postemergence, 0 to 100 scale (0 no effect, 100 complete control); for pest or weed control at 125 g/ha: 125 g ai/ha; for pest or weed control at 500 g/ha: 500 g ai/ha
How it was run: as §1

[4] = tested on: Foxtail, Giant (giant foxtail, Setaria faberi); experiment: Test A postemergence, Foxtail, Giant; details: Setaria faberi, post-emergence, 240 h, Postemergence, 0 to 100 scale (0 no effect, 100 complete control); for pest or weed control at 125 g/ha: 125 g ai/ha; for pest or weed control at 500 g/ha: 500 g ai/ha
How it was run: as §1

[5] = visual injury approx. 10 days, read-out: Plant response rating, Kochia
[6] = visual injury, approx. 10 days, read-out: Plant response rating, Kochia
[7] = visual injury approx. 10 days, read-out: Plant response rating, Galium
[8] = visual injury, approx. 10 days, read-out: Plant response rating, Galium
[9] = visual injury approx. 10 days, read-out: Plant response rating, Ryegrass, Italian
[10] = visual injury, approx. 10 days, read-out: Plant response rating, Ryegrass, Italian
[11] = visual injury approx. 10 days, read-out: Plant response rating, Foxtail, Giant
[12] = visual injury, approx. 10 days, read-out: Plant response rating, Foxtail, Giant
[13] = visual injury vs untreated controls after approx. 10 days, read-out: Kochia plant response rating
[14] = visual injury vs untreated controls after approx. 10 days, read-out: Galium plant response rating
[15] = visual injury vs untreated controls after approx. 10 days, read-out: Ryegrass, Italian plant response rating
[16] = visual injury vs untreated controls after approx. 10 days, read-out: Foxtail, Giant plant response rating
[17] = read-out: Plant response rating, Kochia
[18] = read-out: Plant response rating, Galium
[19] = read-out: Plant response rating, Ryegrass, Italian
[20] = read-out: Plant response rating, Foxtail, Giant

SMILES | pest or weed control at 125 g/ha [1, 5] [%] | pest or weed control at 500 g/ha [1, 6] [%] | pest or weed control at 125 g/ha [2, 7] [%] | pest or weed control at 500 g/ha [2, 8] [%] | pest or weed control at 125 g/ha [3, 9] [%] | pest or weed control at 500 g/ha [3, 10] [%] | pest or weed control at 125 g/ha [4, 11] [%] | pest or weed control at 500 g/ha [4, 12] [%] | pest or weed control at 500 g/ha [1, 13] [%] | pest or weed control at 500 g/ha [2, 14] [%] | pest or weed control at 500 g/ha [3, 15] [%] | pest or weed control at 500 g/ha [4, 16] [%] | pest or weed control at 125 g/ha [1, 17] [%] | pest or weed control at 500 g/ha [1, 5] [%] | pest or weed control at 125 g/ha [2, 18] [%] | pest or weed control at 500 g/ha [2, 7] [%] | pest or weed control at 125 g/ha [3, 19] [%] | pest or weed control at 500 g/ha [3, 9] [%] | pest or weed control at 125 g/ha [4, 20] [%] | pest or weed control at 500 g/ha [4, 11] [%]
CCc1cc(-c2cc(NS(=O)(=O)C(F)(F)F)c(C)cc2C)c(=O)n(C)n1 [Compound 34, N-[5-(6-Ethyl-2,3-dihydro-2-methyl-3-oxo-4-pyridazinyl)-2,4-dimethylphenyl]-1,1,1-trifluoromethanesulfonamide] | 30 | 50 | 10 | 0 | 0 | 0 | 0 | 0 |  |  |  |  |  |  |  |  |  |  |  | 
Cc1cc(C)c(C2=NOC3CCOCC23)cc1NS(=O)(=O)C(F)(F)F (stereo not shown) [Compound 120, N-[2,4-Dimethyl-5-(3a,6,7,7a-tetrahydro-4H-pyrano[3,4-d]isoxazol-3-yl)phenyl]-1,1,1-trifluoromethanesulfonamide] | 70 |  | 90 |  | 90 |  | 40 |  | 90 | 90 | 80 | 90 |  |  |  |  |  |  |  | 
Cc1cc(C)c(C(=O)N2CCC(F)(F)CC2)cc1NS(=O)(=O)C(F)(F)F [Compound 241, N-[5-[(4,4-Difluoro-1-piperidinyl)carbonyl]-2,4-dimethylphenyl]-1,1,1-trifluoromethanesulfonamide] |  |  |  |  |  |  |  |  |  |  |  |  | 60 | 90 | 80 | 90 | 0 | 70 | 0 | 30
Cc1cc(Cl)c(NS(=O)(=O)C(F)(F)F)cc1C(=O)N1CCCCC1 [Compound 18, N-[2-Chloro-4-methyl-5-(1-piperidinylcarbonyl)phenyl]-1,1,1-trifluoromethanesulfonamide] | 10 | 40 | 80 | 80 | 10 | 40 | 20 | 70 |  |  |  |  |  |  |  |  |  |  |  | 
Cc1cc(Cl)c(NS(=O)(=O)C(F)(F)F)cc1C(=O)N1CCC(F)(F)CC1 [Compound 229, N-[2-Chloro-5-[(4,4-difluoro-1-piperidinyl)carbonyl]-4-methylphenyl]-1,1,1-trifluoromethanesulfonamide] |  |  |  |  |  |  |  |  | 90 | 90 | 70 | 90 | 60 |  | 90 |  | 30 |  | 50 | 
Cc1cc(C)c(N(COC(=O)C(C)(C)C)S(=O)(=O)C(F)(F)F)cc1C1=NO[C@@H]2CCC[C@H]12 [Compound 100, [[2,4-Dimethyl-5-[(3aR,6aR)-3a,5,6,6a-tetrahydro-4H-cyclopent[d]isoxazol-3-yl]phenyl][(trifluoromethyl)sulfonyl]amino]methyl 2,2-dimethylpropanoate] | 60 |  | 80 |  | 20 |  | 10 |  | 90 | 90 | 40 | 40 |  |  |  |  |  |  |  | 
Cc1cc(Cl)c(NS(=O)(=O)C(F)(F)F)cc1C(=O)N1CCOCC1 [Compound 16, N-[2-Chloro-4-methyl-5-(4-morpholinylcarbonyl)phenyl]-1,1,1-trifluoromethanesulfonamide] | 40 | 80 | 80 | 90 | 50 | 70 | 40 | 90 |  |  |  |  |  |  |  |  |  |  |  | 
Cc1cc(C)c(C2=NOC3(CCCC3)C2)cc1NS(=O)(=O)C(F)(F)F [Compound 207, N-[2,4-Dimethyl-5-(1-oxa-2-azaspiro[4.4]non-2-en-3-yl)phenyl]-1,1,1-trifluoromethanesulfonamide] |  |  |  |  |  |  |  |  | 60 | 70 | 90 | 90 | 20 |  | 50 |  | 40 |  | 50 | 
Cc1cc(C)c(C2=NO[C@@H]3CCC[C@H]23)cc1NS(=O)(=O)C(F)(F)F [Compound 103, N-[2,4-Dimethyl-5-[(3aR,6aR)-3a,5,6,6a-tetrahydro-4H-cyclopent[d]isoxazol-3-yl]phenyl]-1,1,1-trifluoromethanesulfonamide] | 70 |  | 90 |  | 90 |  | 30 |  | 80 | 100 | 90 | 70 |  |  |  |  |  |  |  | 
Cc1cc(C)c(C2=NOC3COCCC23)cc1NS(=O)(=O)C(F)(F)F (stereo not shown) [Compound 121, N-[2,4-Dimethyl-5-(3a,4,7,7a-tetrahydro-5H-pyrano[4,3-d]isoxazol-3-yl)phenyl]-1,1,1-trifluoromethanesulfonamide] | 50 |  | 90 |  | 90 |  | 50 |  | 80 | 90 | 80 | 90 |  |  |  |  |  |  |  | 
Cc1cc(C)c(C2=NOC3(CCCCC3)C2)cc1NS(=O)(=O)C(F)(F)F [Compound 197, N-[2,4-Dimethyl-5-(1-oxa-2-azaspiro[4.5]dec-2-en-3-yl)phenyl]-1,1,1-trifluoromethanesulfonamide] |  |  |  |  |  |  |  |  | 80 | 90 | 60 | 90 | 50 |  | 90 |  | 50 |  | 80 | 
Cc1c(NS(=O)(=O)C(F)(F)F)cc(C(=O)N(C)C)c(C)c1F [Compound 128, 3-Fluoro-N,N,2,4-tetramethyl-5-[[(trifluoromethyl)sulfonyl]amino]benzamide] | 30 |  | 80 |  | 80 |  | 10 |  | 70 | 90 | 100 | 50 |  |  |  |  |  |  |  | 
Cc1c(NS(=O)(=O)C(F)(F)F)cc(C(=O)N2CCOCC2)c(C)c1F [Compound 190, 1,1,1-Trifluoro-N-[3-fluoro-2,4-dimethyl-5-(4-morpholinylcarbonyl)phenyl]methanesulfonamide] |  |  |  |  |  |  |  |  | 70 | 90 | 90 | 80 | 30 |  | 70 |  | 80 |  | 20 | 
Cc1cc(C)c(N(COC(=O)C(C)(C)C)S(=O)(=O)C(F)(F)F)cc1C1=NOC2(CCCCC2)C1 [Compound 159, [[2,4-Dimethyl-5-(1-oxa-2-azaspiro[4.5]dec-2-en-3-yl)phenyl][(trifluoromethyl)sulfonyl]amino]methyl 2,2-dimethylpropanoate] |  |  |  |  |  |  |  |  | 40 | 90 | 0 | 30 | 20 |  | 80 |  | 0 |  | 0 | 
